“And” between values parts separate entries of the source, which are not always exact repeats. Equal values may be shown once.
What was measured:
Type in all cases: in vivo, human
[1] = test system: adult patients with Gaucher disease Type 3; experiment: GD3 clinical study: resting-state fMRI connectivity; settings: Patient 5 likely non-compliant, GD3, 15 mg/day oral + imiglucerase
Experimental: Neurological function—was further evaluated using functional magnetic resonance imaging (fMRI). Patient 2 was excluded because no fMRI data was collected at the Week 52 session. Resting-state fMRI screening sessions were performed at baseline screening, Week 26, and Week 52 visits. Connectivity estimates from four subjects (Patients 1, 3, 4 and 5) were entered into second-level analyses as a “compliant” group. Patient 5 was isolated due to likely non-compliance with study medication, as described above. Analyses were performed as described elsewhere (Smith et al. [2009]).
Spatial analysis of the connectivity between different anatomic regions of the brain is performed to define a correlation coefficient for regressed voxelwise mean intensity.

[2] = test system: adult patients with Gaucher disease Type 3; experiment: GD3 clinical study: interstitial lung disease by high-resolution CT; settings: after 26 weeks; GD3, 15 mg/day oral + imiglucerase
Experimental: (§1) During the study patients were evaluated for safety and tolerability, CSF and plasma biomarkers (glucosylceramide, GL-1; glucosylsphingosine, lyso-GL1), pharmacokinetics, markers for systemic disease (spleen and liver volume measured by magnetic resonance imaging (MRI), platelet count, hemoglobin levels), indicia of interstitial lung disease (high resolution pulmonary computed tomography (CT)), and horizontal saccadic eye movement.
Severity of interstitial lung disease was characterized by the percent of lung volume affect by ILD as measured by high-resolution CT in four lung regions (aortic arch, carina, lower zone L3, lower zone L4). Patients were rated as having severe ILD (51-100% of lung volume affected), moderate ILD (26-50% of lung volume affected), mild ILD (1-25% of lung volume affected) or normal (0% of lung volume showing ILD).

[3] = Phase 1 Study 1 Part 1: ascending single-dose pharmacokinetics; settings: healthy men, fasted
Text: (§2) Study 1 was a 2-part single-center trial in healthy adult male volunteers.
Part 1 of the study enrolled and randomized 55 healthy men (placebo, n=14; 2-, 5-, 15, 25-, 50, and 100-mg doses, n=6 each; 150-mg dose, n=5). Eight healthy men participated in Part 2.
(§3) After a 7-day washout period, participants were crossed over to the other condition.

[4] = Phase 1 Study 2: ascending repeated-dose pharmacokinetics
[5] = test system: adult patients with Gaucher disease Type 3; experiment: GD3 clinical study: trail making test (TMT); settings: GD3, 15 mg/day oral + imiglucerase
Text: The trail making test (TMT) was used to evaluate cognitive function in the patients. The TMT is one of the most widely used neuropsychological tests and is included in most test batteries. The TMT is a diagnostic tool to assess general intelligence and cognitive dysfunctions (Tombaugh et al. [2004]; Cavaco et al. [2013]). In part A of the TMT, subjects are asked to connect a cluster of numbers in ascending order. This task is a combination of visual search and general visual and motor processing speed. Part B presents a sequence which alternates between numbers and letters. Subjects must actively switch between both categories when connecting them in ascending, but alternating order.
TMT-A evaluates mainly perceptual and psychomotor speed. TMT-B assesses more specifically mental flexibility and shifting abilities. TMT B minus TMT A score is used to remove the variance attributable to the graphomotor and visual scanning components of TMT A. This derived score reflects the unique task requirements of TMT B.

[6] = Phase 1 studies: safety profile
Experimental: In all studies, safety profile was assessed by monitoring treatment-emergent adverse events (TEAEs) through 10 days after last dose of study medication, including serious adverse events [SAEs]), ECG monitoring, laboratory values, and physical examinations.

[7] = Phase 1 Study 1 Part 2: PK with and without a high-fat meal; settings: healthy men, single oral 5 mg, fed vs fasting
Text: as §2, §3

plasma GL-3 = experiment: Fabry: matched comparison with historical phase 3 trial of agalsidase beta; settings: Fabry males, 15 mg/day oral
Text: Mean ages were similar across the three groups.

[8] = GD3 clinical study: safety and tolerability; settings: GD3, 15 mg/day oral + imiglucerase
Experimental: as §1

[9] = test system: chitotriosidase (CHITO), GM3, GPNMB, ceramide; experiment: GD3 clinical study: exploratory biomarkers; settings: GD3, 15 mg/day oral + imiglucerase
Experimental: Four exploratory biomarkers were quantified in plasma, serum and/or CSF of GD3 patients at week 4 and week 26: chitotriosidase (CHITO; an enzyme known to be elevated in GD patients) was measured in CSF and serum; GM3 (a glycosphingolipid marker known to be elevated in GD patients) was measured in CSF and plasma; and glycoprotein nonmetastatic melanoma protein B (GPNMB; reportedly a biomarker of neuropathic GD3) was measured in CSF. The results are shown in the table below as percent change from baseline at week 4 and week 26 for each parameter:
In addition, exploratory biomarkers were quantified in CSF of GD3 patients: ceramide (the precursor of GL-1), chitotriosidase (CHITO), GM3, and GPNMB.

[10] = healthy adults, 5 mg once daily, Day 14
[11] = repeated once-daily doses from 5-20 mg
[12] = healthy volunteers, all Phase 1 studies

CC(C)(NC(=O)O[C@@H]1CN2CCC1CC2)c1csc(-c2ccc(F)cc2)n1 [Compound 2, (S)-quinuclidin-3-yl (2-(2-(4-fluorophenyl)thiazol-4-yl)propan-2-yl)carbamate]
connectivity between the default mode (resting) network and the executive function network [1]: increased in Patients 1, 3, 4 and 6, but decreased in Patient 5 | patients showing regression of ILD [2]: 4 out of 5 | CL/F, Geometric mean ([3]; single oral 2 mg): 6.3 L/h | CL/F, Geometric mean ([3]; single oral 5 mg): 5.8 L/h | CL/F, Geometric mean ([3]; single oral 15 mg): 5.6 L/h | CL/F, Geometric mean ([3]; single oral 25 mg): 5.0 L/h | CL/F, Geometric mean ([3]; single oral 50 mg): 5.5 L/h | CL/F, Geometric mean ([3]; single oral 100 mg): 5.3 L/h | CL/F, Geometric mean ([3]; single oral 150 mg): 5.6 L/h | CL/F, Mean ([3]; single oral 150 mg): 5.80 L/h | AUC0-24, Geometric mean (CV) [4, 10]: 632 (19) ng · h/mL | AUC0-24, Mean (SD) [4, 10]: 642 (121) ng · h/mL | tmax, median (range) ([4]; healthy adults, 10 mg once daily, Day 1): 3.00 (2.00-5.00) h | tmax, median (range) ([4]; healthy adults, 20 mg once daily, Day 14): 3.00 (2.00-8.00) h | Ctrough values ([4]; healthy adults, 5, 10, or 20 mg once daily for 14 days): reached a plateau after Day 5 | effect of age and gender on accumulation [4, 11]: neither age nor gender affected accumulation | time to steady state [4, 11]: ≤ 5 days | TMT-A-TMT-B ([5]; Week 52, individual patients 1-6): 20 s | patients with a TMT-A reduction, excluding Patient 5 ([5]; Week 52): four of five | patients with a TMT-B reduction, excluding Patient 5 ([5]; Week 52): five of five | patients with a reduction in the (TMT B-TMT A) time ([5]; Week 52): 5 of 6 | patients with an improvement in Trail B minus Trial A, excluding Patient 5 ([5]; Week 52): four of five | patients with reduction in time taken to complete Trail A ([5]; Week 52): Four of six | patients with reduction in time taken to complete Trail B ([5]; Week 52): six of six | TMT-A-TMT-B, Change (%) from Baseline to Week 52 ([5]; individual patients 1-6): −72% and −43% | Vital signs [6, 12]: no relevant changes from baseline | deaths, SAEs, severe TEAEs, discontinuations [6, 12]: no deaths, SAEs, severe TEAEs, or TEAEs leading to study discontinuation | hematologic or biochemical abnormalities [6, 12]: No clinically relevant hematologic or biochemical abnormalities | ECG parameters ([6]; single ascending dose and food effect studies): no relevant changes | effect of a high-fat meal on Compound 2 exposure [7]: no effect | reduction in plasma GL-3 (plasma GL-3; 26 weeks, matched comparison to placebo (−1.06 μg/mL, P<0.0001)): -3.62 µg/mL | plasma GL-3 reduction compared to agalsidase beta (plasma GL-3; 104 weeks (p=0.0351) and 156 weeks (p=0.0081)): significantly greater | treatment-emergent adverse events ([8]; 26 weeks, all 5 patients): no serious or lasting treatment-emergent adverse events | total treatment-emergent adverse events reported ([8]; 52 weeks, six patients): 30 | severity of treatment-emergent adverse events ([8]; 52 weeks, six patients, none considered related to treatment): mild or moderate in severity | GM3 in CSF ([9]; 4, 26 and 52 weeks, the four of six patients with measurable GM3 at baseline): undetectable | CSF concentrations of ceramide, CHITO or GPNMB ([9]; after 52 weeks): no significant changes
